As a reminder, the IC50 is the concentration that gives 50% inhibition.

In one test the target is T1, 5HT1A receptor (Rattus norvegicus, UniProt P19327).
T1 sequence (P19327 1-422): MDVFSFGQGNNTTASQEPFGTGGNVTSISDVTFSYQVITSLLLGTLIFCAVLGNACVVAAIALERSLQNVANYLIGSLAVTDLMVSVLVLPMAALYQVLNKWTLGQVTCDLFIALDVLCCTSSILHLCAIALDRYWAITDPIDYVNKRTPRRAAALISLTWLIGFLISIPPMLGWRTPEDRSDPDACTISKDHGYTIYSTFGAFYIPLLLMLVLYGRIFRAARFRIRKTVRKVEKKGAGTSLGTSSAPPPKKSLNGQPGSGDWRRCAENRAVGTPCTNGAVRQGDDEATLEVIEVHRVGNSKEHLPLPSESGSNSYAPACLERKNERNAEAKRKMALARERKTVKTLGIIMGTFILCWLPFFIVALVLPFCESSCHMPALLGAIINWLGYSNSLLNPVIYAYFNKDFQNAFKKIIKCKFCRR
Description: 5HT1A receptor binding affinity (procedure of Gozlan et al.). On the procedure: In the following examples, the compounds binding affinity for both the 5HT1A receptor and 5HT1D receptors is reported. The compounds affinity for the 5HT1D site was determined by the binding procedure of Peroutka et al as reported in European Journal of Pharmacology, Vol. 163 at pages 133-166 (1989). The compounds affinity for the 5HT1A receptor was determined by the procedure of Gozlan et al., as reported in Nature, Volume 305, at pages 140-142 (1983). Where multiple determinations of the binding affinity have been performed, the average is given followed by the number of determinations in parentheses. Also, the PA2 value for the saphenous vein preparation as described in this application is given, followed by the intrinsic (agonist) activity in parentheses, expressed as a percentage. [drawing 10] […]

A further test deals with T2, 5HT1D receptor (Bos taurus, UniProt F1MGM3).
T2 construct: from tissue
T2 sequence (F1MGM3 1-403): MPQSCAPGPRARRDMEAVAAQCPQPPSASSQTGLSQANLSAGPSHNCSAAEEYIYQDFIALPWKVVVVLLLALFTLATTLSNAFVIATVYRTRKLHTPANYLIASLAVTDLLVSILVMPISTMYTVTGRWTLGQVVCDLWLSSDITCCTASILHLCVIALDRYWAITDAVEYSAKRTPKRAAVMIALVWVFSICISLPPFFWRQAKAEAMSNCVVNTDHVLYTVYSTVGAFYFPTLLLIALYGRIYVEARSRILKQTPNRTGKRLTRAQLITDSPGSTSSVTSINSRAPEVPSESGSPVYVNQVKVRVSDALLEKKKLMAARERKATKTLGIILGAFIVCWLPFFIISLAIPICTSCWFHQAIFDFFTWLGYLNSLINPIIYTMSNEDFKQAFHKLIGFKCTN
Description: 5HT1D receptor binding affinity (procedure of Peroutka et al.).

[1] abbreviates: average of multiple determinations where number in parentheses is given, read-out: IC50 (5HT1A Binding Affinity).
The mark [2] stands for this setting: average of multiple determinations where number in parentheses is given, read-out: IC50 (5HT1D Binding Affinity).

SMILES strings stand for the structures. Where a name gives a salt, the structure may show the parent alone. Read-outs that look alike come from different tables or passages of the source.

Description for 5HT1D receptor: The compounds affinity for the 5HT1D site was determined by the binding procedure of Peroutka et al as reported in European Journal of Pharmacology, Vol. 163 at pages 133-166 (1989). […] Where multiple determinations of the binding affinity have been performed, the average is given followed by the number of determinations in parentheses.

As for `CCOC(=O)c1cc2c(N3CCN(Cc4ccccc4)CC3)cccc2s1` [Example 1, ethyl-4-[4-(phenylmethyl)-1-piperazinyl]benzo[b]thiophene-2-carboxylate monohydrochloride], the IC50 at 5HT1A receptor (setting [1]) and on 5HT1D receptor (setting [2]) was above 1 µM throughout.

For the compound `OCc1cc2c(N3CCN(Cc4ccccc4)CC3)cccc2s1` [Example 2, 4-[4-(phenylmethyl)-1-piperazinyl]-benzo[b]thiophene-2-methanol monohydrochloride], the IC50 at 5HT1A receptor (setting [1]) was 0.035 µM; on 5HT1D receptor (setting [2]) it was 0.76 µM. On to `N#Cc1cc2c(N3CCN(Cc4ccccc4)CC3)cccc2s1` [Example 3, 4-[4-(phenylmethyl)-1-piperazinyl]-benzo[b]thiophene-2-nitrile monohydrochloride], for which the values for the IC50 at 5HT1A receptor (setting [1]) and on 5HT1D receptor (setting [2]) were 0.18 µM and above 1 µM, respectively.

Regarding `NC(=O)c1cc2c(N3CCN(Cc4ccccc4)CC3)cccc2s1` [Example 4, 4-[4-(phenylmethyl)-1-piperazinyl]-benzo[b]thiophene-2-carboxamide monohydrochloride], the IC50 at 5HT1A receptor (setting [1]) amounted to 0.0016 µM; at 5HT1D receptor (setting [2]), 0.052 µM. For the compound `CCOC(=O)c1cc2c(N3CCNCC3)cccc2s1` [Example 5, ethyl 4-(1-piperazinyl)-benzo[b]thiophene-2-carboxylate monohydrochloride], the IC50 was 0.089 µM at 5HT1A receptor and 0.047 µM on 5HT1D receptor. `CCOC(=O)c1cc2c(N3CCN(CCc4ccccc4)CC3)cccc2s1` [Example 6, ethyl-4-[4-(2-phenylethyl)-1-piperazinyl]-benzo[b]thiophene-2-carboxylate monohydrochloride]: the IC50 is 0.037 µM at 5HT1A receptor (setting [1]) and 0.108 µM at 5HT1D receptor (setting [2]).

For `N#Cc1cc2c(N3CCN(CCc4ccccc4)CC3)cccc2s1` [Example 8, 4-[4-(2-phenylethy-1-piperazinyl]-benzo[b]thiophene-2-nitrilemonohydrochloride], the half-inhibitory concentration (IC50) at 5HT1A receptor was 0.004 µM; on 5HT1D receptor, 0.018 µM. As for `CCOC(=O)c1cc2c(N3CCN(CCCc4ccccc4)CC3)cccc2s1` [Example 14, ethyl-4-[4-(3-phenylpropyl)-1-piperazinyl]-benzo[b]thiophene-2-carboxylatemonohydrochloride], the IC50 on 5HT1A receptor (setting [1]) amounted to 0.239 µM; at 5HT1D receptor (setting [2]), 0.551 µM.

As to `N#Cc1cc2c(N3CCN(CCCc4ccccc4)CC3)cccc2s1` [Example 16, 4-[4-(3-phenylpropyl)-1-piperazinyl]-benzo[b]thiophene-2-nitrile monohydrochloride], the half-maximal inhibitory concentration (IC50) at 5HT1A receptor (setting [1]) turned out to be 0.021 µM; at 5HT1D receptor (setting [2]), 0.173 µM.

Turning to `OCc1cc2c(N3CCN(CCc4ccc(Cl)cc4)CC3)cccc2s1` [Example 19, 4-[4-[2-(4-chlorophenyl)ethyl]-1-piperazinyl]-benzo[b]thiophene-2-methanolmonohydrochloride], the IC50 was found to be 0.002 µM at 5HT1A receptor and 0.01 µM at 5HT1D receptor. The corresponding values for `OCc1cc2c(N3CCN(CCc4ccc(F)cc4)CC3)cccc2s1` [Example 23, 4-[4-[2-(4-fluorophenyl)ethyl]-1-piperazinyl]-benzo[b]thiophene-2-methanolmonohydrochloride] are 0.003 µM and 0.003 µM. For `NC(=O)c1cc2c(N3CCN(CCc4ccc(F)cc4)CC3)cccc2s1` [Example 25, 4-[4-[2-(4-fluorophenyl)ethyl]-piperazinyl]-benzo[b]-thiophene-2-carboxamide monohydrochloride], in that order: 0.0008 µM and 0.006 µM. For `Cc1ccc(CCN2CCN(c3cccc4sc(CO)cc34)CC2)cc1` [Example 27, 4-[4-[2-(4-methylphenyl)-ethyl]-1-piperazinyl]-benzo[b]thiophene-2-methanol monohydrochloride], in that order: 0.003 µM and 0.001 µM.

In the case of `Cc1ccc(CCN2CCN(c3cccc4sc(C#N)cc34)CC2)cc1` [Example 28, 4-[4-[2-(4-methylphenyl)ethyl]-1-piperazinyl]-benzo[b]thiophene-2-nitrile monohydrochloride], the IC50 at 5HT1A receptor was determined as 0.004 µM; at 5HT1D receptor, 0.056 µM. `CCOC(=O)c1cc2c(N3CCN(CCc4ccc(OC)cc4)CC3)cccc2s1` [Example 30, ethyl-4-[4-[2-(4-methoxyphenyl)ethyl]-1-pierazinyl]-benzo-[b]thiophene-2-carboxylate monohydrochloride]: the values for the IC50 on 5HT1A receptor (setting [1]) and at 5HT1D receptor (setting [2]) were 0.074 µM and 0.073 µM, respectively.

In the case of `COc1ccc(CCN2CCN(c3cccc4sc(CO)cc34)CC2)cc1` [Example 31, 4-[4-[2-(4-methoxyphenyl)ethyl]-1-piperazinyl]-benzo[b]thiophene-2-methanol monohydrochloride], the half-maximal inhibitory concentration (IC50) on 5HT1A receptor turned out to be 0.001 µM; on 5HT1D receptor, 0.002 µM. `Cc1c(CO)sc2cccc(N3CCN(CCc4ccccc4)CC3)c12` [Example 33, 4-[4-(2,phenylethyl)-1-piperazinyl]-benzo[b]-thiophene-3-methyl-2-methanol monhydrochloride 0.5 hydrate]: the IC50 at 5HT1A receptor stood at 0.009 µM; at 5HT1D receptor, 0.031 µM. In the case of `CCCN1CCN(c2cccc3sc(CO)cc23)CC1` [Example 35, 4-[(4-propyl)-1-piperazinyl]benzo[b]thiophene-2-methanol hydrochloride], the IC50 turned out to be 0.034 µM on 5HT1A receptor (setting [1]) and 0.066 µM at 5HT1D receptor (setting [2]). As to `CN1CCN(c2cccc3sc(CO)cc23)CC1` [Example 39, 4-[4-methyl-1-piperazinyl]-benzo[b]thiophene-2-methanol hydrochloride], the 50% inhibitory concentration (IC50) on 5HT1D receptor is 0.016 µM. For the compound `CC(O)c1cc2c(N3CCN(CCc4ccccc4)CC3)cccc2s1` (stereo not drawn) [Example 43, 1-[4-(4-phenethyl-piperazin-1-yl)-benzo[b]thiophen-2-yl]ethanol hydrochloride], the IC50 on 5HT1A receptor stood at 0.0005 µM; at 5HT1D receptor, 0.003 µM. Compound `COCc1cc2c(N3CCNCC3)cccc2s1` [Example 45, 4-(1-piperazinyl)-benzo[b]thiophene-2-methoxymethyl hydrochloride hemihydrate] had an IC50 at 5HT1D receptor of 0.004 µM. Still for that read-out and setting: for `CNC(=O)c1cc2c(N3CCNCC3)cccc2s1` [Example 49, 4-(1-piperazinyl)benzol[b]-thiophene-2-(N-methyl)carboxamide dihydrochloride hydrate] the value was 0.0084 µM.

As to `O=[N+]([O-])c1ccc(CCN2CCN(c3cccc4sc(CO)cc34)CC2)cc1` [Example 50, 4-[4-[2-(4-nitrophenyl)ethyl]-1-piperazinyl]-benzo[b]thiophene-2-methanol hydrochloride], the IC50 on 5HT1A receptor (setting [1]) was determined as 0.001 µM; at 5HT1D receptor (setting [2]) it was 0.006 µM. For `NCc1cc2c(N3CCN(CCc4ccccc4)CC3)cccc2s1` [Example 55, 4-[4-(2-phenylethyl)-1-piperazinyl]-benzo[b]thiophene-2-methanamine dihydrochloride], the IC50 on 5HT1A receptor is 0.003 µM; at 5HT1D receptor, 0.012 µM.

The values are drawn from US5436246A, “Serotonin receptor agents” (priority 1993, dated 1995).
